Laboratory results reported in patent US7169785B2, “Methods and compositions of novel triazine compounds” (Reddy US Therapeutics, Inc., priority 2001, dated 2007).
Like-named read-outs stand apart in the source and are kept apart here.

Assays:
cells = experiment: Cytotoxicity / lactate dehydrogenase assay and visual observation of cells; format: cell-based
Method: Assays for determining the activity of compounds capable of cytotoxic activity include those taught in herein and others that are well known in the art. In general, to determine if there is cytotoxic activity associated with a compound, cells of a particular type, in a growing stage or a quiescient stage, are treated with the compound of interest. Various parameters of cell death or cessation are used to measure the effects of the compound. For example, the amount of nucleic acid or protein synthesis can be measured or visual observation of the state of the cells, such as release from the substrate, can be used to measure the state of the cells.
An appropriate number of cells are plated in four 96-well plates, one plate for “day 0” and three plates for days 1–3. Cells are treated with at least one compound of the present invention in varying concentrations with and without the apoptosis inducer cisplatin (2 μM) (“+cis” or “−cis”). Unteated cells are also assayed with and without cisplatin. After transfection, the plates are incubated at 37° C. overnight.
An appropriate number of cells are plated in four 96-well plates, one plate for “day 0” and three plates for days 1–3. Cells are treated with at least one compound of the present invention in varying concentrations. The negative control cells have normal media conditions, a duplicate set of wells is treated with the composition in which the compound is provided, but there is no added compound and the positive control cells are treated with the apoptosis inducer cisplatin (2 μM). All of the cells are transfected with a vector having a promoter that is responsive to apoptosis conditions. When apoptosis occurs, the promoter is turned on and the lactic dehydrogenase gene is activated and the enzyme protein is made and active. Activity is easily detected with a color change. After transfection, the plates are incubated at 37° C. overnight.
About 8 mls of warmed alpha MEM LDH lysis buffer (2% Triton X100) and about 8 mls of culture media (½ dilution) are combined. Two 96-well v-bottom plates are prepared, one labeled “lysis” and one labeled “supernatant.” To lyse the cells, about 200 μl Alpha MEM lysis buffer (diluted ½) is added to one test plate from which the supernatant has been removed and added to the plate labeled supernatant. After mixing, about 200 μl of lysed cells are transferred to the lysis plate. Both the lysis and supernatant plates are centrifuged at about 1600 rpm for about 10 min. After centrifugation, about 100 μl of both the supernatant or lysate is transferred to corresponding 96-well flat-bottomed plates.
The assay for cytotoxicity uses the Cytotoxicity Detection Kit (LDH) from Roche Diagnostics Corp. (Indianapolis, Ind.). Using the directionts provided, the dye solution is mixed and added each well of the lysate and supernatant plate and incubated for up to 20–25 min at 15–25° C. in the dark.

[1] = tested on: Human aortic smooth muscle cells; experiment: Smooth muscle cell proliferation assay (anti-proliferation assay, perlecan); format: cell-based
IL-6 [2] = experiment: AGE (G-HSA)-induced inflammatory response determined by IL-6 ELISA in HAEC; format: cell-based, human; settings: Homo sapiens
Method: Human aortic endothelial cells (HAEC, Clonetics) were cultured according to manufacturer in growth medium (Clonetics): basal medium containing human epidermal growth factor, hydrocortisone, vascular endothelial growth factor, heparin binding growth factor-B, long R3-insulin-like growth factor-1, ascorbic acid, gentamicin/amphotericin and 5% FBS. These cell were allowed to reach at least 90% confluency before subjected to experimental treatments. […] Tumor necrosis factor α was from R&D Systems.
All treatments, compound-added and controls were carried out in serum free media containing 0.2% albumin. Media from all conditions were collected and used for IL-6 ELISA.
(§1) IL-6 ELISA was carried out using human IL-6 DuoSet ELISA development kit as described by manufacturer (R&D Systems). Mouse anti-human Il-6 was used as the capture antibody (2 ug/ml) and biotinylated goat anti-human IL-6 (200 ng/ml) was used as the detection antibody. Culture media were incubated with capture antibody (in 96 well) for 2 h at room temperature. Wells were washed three times with wash buffer (0.05% tween-20 in phosphate buffered saline (PBS) pH 7.4) followed by incubation with detection antibody for 2 h at room temperature. Following three washes wells were incubated with Streptavidin-HRP for 20 min. Color development was read at 450 nm in a Microplate reader.

IL-6 [3] = experiment: TNF-α-induced IL-6 production determined by IL-6 ELISA in HAEC; format: cell-based, human; settings: HAEC; for Inhibition of TNF-induced IL6 production: class of % of control IL6 production; for activity at 10 µM: 24 h, Compds tested @ 10 uM, read-out: % IL6 production compare to TNF stimulation of IL6 (100%)
Method: Human aortic endothelial cells (HAEC, Clonetics) were cultured according to manufacturer in growth medium (Clonetics): basal medium containing human epidermal growth factor, hydrocortisone, vascular endothelial growth factor, heparin binding growth factor-B, long R3-insulin-like growth factor-1, ascorbic acid, gentamicin/amphotericin and 5% FBS. These cell were allowed to reach at least 90% confluency before subjected to experimental treatments. Glycated human serum albumin (G-HSA) was from US Biologicals. Tumor necrosis factor α was from R&D Systems.
[…] All treatments, compound-added and controls were carried out in serum free media containing 0.2% albumin. Media from all conditions were collected and used for IL-6 ELISA.
as §1

[4] = Homo sapiens, anti-proliferation assay (perlecan), read-out: Activity (note 1)
[5] = Homo sapiens, anti-proliferation assay (perlecan), read-out: Avg IC-50
[6] = Homo sapiens, read-out: Activity (note 1)
[7] = Homo sapiens, read-out: Avg IC-50

For `CCN1CCCC1CNc1nc(Nc2cccc3cccnc23)nc(NC2CCCCCC2)n1` (stereo not shown) [Compound 5, N^2-cycloheptyl-N^4-[(1-ethyl-2-pyrrolidinyl)methyl]-N^6-(8-quinolinyl)-1,3,5-triazine-2,4,6-triamine], the Toxicity (cells; toxic or cause cell death) was “toxic”.

`COc1ccc(Nc2nc(NC3CCCCCC3)nc(N(C)C3CCN(C)CC3)n2)cc1Br` [Compound 170] was tested, and the IC50 [1, 4] was greater than 7 µM and the IC50 [1, 5] was 8 to 9 µM.

`COc1ccc(Nc2nc(NC3CC3)nc(N(C)C3CCN(C)CC3)n2)cc1Cl` was tested, and the “cell death under Inflammation Data” value (cells; 10 uM) was 15%.

With `COc1ccc(Nc2nc(NC3CCCCCC3)nc(N(C)C3CCN(C)CC3)n2)cc1Cl` [Compound 137, N-(3-Chloro-4-methoxy-phenyl)-N′-cycloheptyl-N″-methyl-N″-(1-methyl-piperidin-4-yl)-[1,3,5]triazine-2,4,6-triamine] the IC50 [1, 4] was 3 to 7 µM and the IC50 [1, 5] was 4 to 5 µM.

With `CCN1CCCC1CNc1nc(Nc2ccc(Oc3ccccc3)cc2)nc(NC2CCCCCC2)n1` (stereo not shown) [Compound 36, N^2-cycloheptyl-N^4-[(1-ethyl-2-pyrrolidinyl)methyl]-N^6-(4-phenoxyphenyl)-1,3,5-triazine-2,4,6-triamine] the Toxicity (cells; toxic or cause cell death) was “toxic”.

`CCN1CCCC1CNc1nc(Nc2ccc(OC)c(Cl)c2)nc(NC2CCCCCC2)n1` (stereo not shown) [Compound 136, N^2-(3-chloro-4-methoxy-phenyl)-N^4-cycloheptyl-N^6-(1-ethyl-pyrrolidin-2-ylmethyl)-1,3,5-triazine-2,4,6-triamine] was tested, and the Toxicity (cells; at 3 uM, very toxic) was “Nothing but celldebris at 3 uM verytoxic”.

`CCN1CCCC1CNc1nc(Nc2ccccc2Br)nc(NC2CCCCCC2)n1` (stereo not shown) [Compound 22, N^2-(2-bromophenyl)-N^4-cycloheptyl-N^6-[(1-ethyl-2-pyrrolidinyl)methyl]-1,3,5-triazine-2,4,6-triamine] was tested, and the Toxicity (cells; toxic or cause cell death) was “toxic”.

In the case of `CCN1CCCC1CNc1nc(Nc2ccc(OC)c(F)c2)nc(NC2CCCCCC2)n1` (stereo not shown) [Compound 95, N^2-cycloheptyl-N^4-[(1-ethyl-2-pyrrolidinyl)methyl]-N^6-(3-fluoro-4-methoxyphenyl)-1,3,5-triazine-2,4,6-triamine], the IC50 [1, 4] is reported as greater than 7 µM, the IC50 [1, 5] is reported as 7.3 µM and the activity at 10 µM (IL-6 [2]; 24 h, Compds tested @ 10 uM, IL6, read-out: % IL6 production compare to AGE stimulation of IL6 (100%)) is reported as 1%. For the same molecule, the IC50 (IL-6 [2]; IL6, unit inferred, read-out: IC50 (AGE stimulation of IL6)) was 6.6 µM, the “Inhibition of TNF-induced IL6 production” value (IL-6 [3]) was “++++ (between 0 and about 25% of IL6 production compared to cells that did not receive compound (or per cent of control IL6 production))” and the activity at 10 µM (IL-6 [3]; Homo sapiens, IL6) was 5%. For the same molecule, the IC50 (IL-6 [3]; Homo sapiens, IL6, unit inferred, read-out: IC50 (TNF stimulation of IL6)) was 2.8 µM.

For `CCN1CCCC1CNc1nc(Nc2ccc(OC)c(F)c2)nc(NC2CCCCCCC2)n1` (stereo not shown) [Compound 54, N^2-cyclooctyl-N^4-[(1-ethyl-2-pyrrolidinyl)methyl]-N^6-(3-fluoro-4-methoxyphenyl)-1,3,5-triazine-2,4,6-triamine], the Toxicity (cells; toxic or cause cell death) was “toxic”.

In the case of `CCN1CCCC1CNc1nc(Nc2ccc(Br)cc2)nc(NC2CCCCCC2)n1` (stereo not shown) [Compound 13, N^2-(4-bromophenyl)-N^4-cycloheptyl-N^6-[(1-ethyl-2-pyrrolidinyl)methyl]-1,3,5-triazine-2,4,6-triamine], the Toxicity (cells; toxic or cause cell death) is reported as “toxic”.

In the case of `CCN(CC)c1ccc(Nc2nc(NCC3CCCN3CC)nc(NC3CCCCCC3)n2)cc1Cl` (stereo not shown) [Compound 163], the IC50 ([1]; anti-proliferation assay (perlecan), read-out: Activity (note 1)) is reported as greater than 7 µM and the IC50 ([1]; anti-proliferation assay (perlecan), read-out: Avg IC-50) is reported as 8 to 10 µM.

`CCCC(CCC)Nc1nc(Nc2ccc(OC)c(Cl)c2)nc(N(C)C2CCN(C)CC2)n1` [Compound 105, N-(3-Chloro-4-methoxy-phenyl)-N′-methyl-N′-(1-methyl-piperidin-4-yl)-N″-(1-propyl-butyl)-[1,3,5]triazine-2,4,6-triamine] showed an IC50 [1, 4] greater than 7 µM and an IC50 [1, 5] of roughly 7 µM.

`CCN1CCCC1CNc1nc(Nc2ccc(OC(F)(F)F)cc2)nc(NC2CCCCCC2)n1` (stereo not shown) [Compound 9, N^2-cycloheptyl-N^4-[(1-ethyl-2-pyrrolidinyl)methyl]-N^6-[4-(trifluoromethoxy)phenyl]-1,3,5-triazine-2,4,6-triamine] was tested, and the Toxicity (cells; toxic or cause cell death) was “toxic”.

`CN1CCC(N(C)c2nc(Nc3ccc4ccccc4c3)nc(NC3CCCCCC3)n2)CC1` [N^2-cycloheptyl-N^4-methyl-N^4-(1-methyl-piperidin-4-yl)-N^6-naphthalen-2-yl-1,3,5-triazine-2,4,6-triamine] was tested, and the “activity in anti-proliferation assay (Perlecan)” value ([1]; same activity scale used in Table 3, in words) was “high activity”.

In the case of `CCN1CCCC1CNc1nc(Nc2ccc(F)c(F)c2)nc(NC2CCCCCC2)n1` (stereo not shown) [Compound 8, N^2-cycloheptyl-N^4-(3,4-difluorophenyl)-N^6-[(1-ethyl-2-pyrrolidinyl)methyl]-1,3,5-triazine-2,4,6-triamine], the Toxicity (cells; toxic or cause cell death) is reported as “toxic”.

With `COc1ccc(Nc2nc(NCC3CCCCC3)nc(N(C)C3CCN(C)CC3)n2)cc1Cl` [Compound 103, N-(3-Chloro-4-methoxy-phenyl)-N′-cyclohexylmethyl-N″-methyl-N″-(1-methyl-piperidin-4-yl)-[1,3,5]triazine-2,4,6-triamine] the IC50 [1, 4] was greater than 7 µM and the IC50 [1, 5] was roughly 7 µM.

Molecule `COc1ccc(Nc2nc(Cl)nc(NC3CCCCCC3)n2)cc1F` [Compound 127, 6-Chloro-N-cycloheheptyl-N′-(3-fluoro-4-methoxy-phenyl)-[1,3,5]triazine-2,4-diamine] has an IC50 [1, 4] greater than 7 µM, an IC50 [1, 5] of 10 µM and an activity at 10 µM (IL-6 [3]; Homo sapiens, IL6) of 48%.

In the case of `CCN1CCCC1CNc1nc(Nc2cccc(F)c2)nc(NC2CCCCCC2)n1` (stereo not shown) [Compound 16, N^2-cycloheptyl-N^4-[(1-ethyl-2-pyrrolidinyl)methyl]-N^6-(3-fluorophenyl)-1,3,5-triazine-2,4,6-triamine], the Toxicity (cells; toxic or cause cell death) is reported as “toxic”.

For `CCN1CCCC1CNc1nc(NC2CCCCCC2)nc(N(C)c2ccc(OC(F)(F)F)cc2)n1` (stereo not shown) [Compound 47, N^2-cycloheptyl-N^4-[(1-ethyl-2-pyrrolidinyl)methyl]-N^6-methyl-N^6-[4-(trifluoromethoxy)phenyl]-1,3,5-triazine-2,4,6-triamine], the Toxicity (cells; toxic or cause cell death) was “toxic”.

`CCN1CCC[C@@H]1CNc1nc(Nc2ccc(OC)c(F)c2)nc(NC2CCCCCC2)n1` [Compound 140, N^2-cycloheptyl-N^4-((R)-1-ethyl-pyrrolidin-2-ylmethyl)-N^6-(3-fluoro-4-methoxyphenyl)-1,3,5-triazine-2,4,6-triamine] was tested, and the IC50 [1, 6] was 3 to 7 µM, the IC50 [1, 7] was 4 to 5 µM and the “Inhibition of TNF-induced IL6 production” value (IL-6 [3]) was “++++ (between 0 and about 25% of IL6 production compared to cells that did not receive compound (or per cent of control IL6 production))”. The activity at 10 µM (IL-6 [3]; Homo sapiens, IL6) was 12.6%.

For `CCN1CCC[C@H]1CNc1nc(Nc2ccc(OC)c(F)c2)nc(NC2CCCCCC2)n1` [Compound 139, N^2-cycloheptyl-N^4-((S)-1-ethyl-pyrrolidin-2-ylmethyl)-N^6-(3-fluoro-4-methoxyphenyl)-1,3,5-triazine-2,4,6-triamine], the IC50 [1, 6] was 3 to 7 µM, the IC50 [1, 7] was 4 to 5 µM and the “Inhibition of TNF-induced IL6 production” value (IL-6 [3]) was “++++ (between 0 and about 25% of IL6 production compared to cells that did not receive compound (or per cent of control IL6 production))”. It also gave an activity at 10 µM (IL-6 [3]; Homo sapiens, IL6) of 16.1%.
